From US20230280334A1, “CDC20 VARIANTS RESISTANT TO ANTI-MITOTIC DRUGS AND RELATED METHODS AND COMPOSITIONS” (Whitehead Institute for Biomedical Research, priority 2021, published 2023)

What was measured:
HeLa cells = experiment: Time-lapse mitotic timing / mitotic arrest duration in HeLa cells; type: cell-based, human; settings: for median arrest time / median mitotic arrest duration: HeLa; for median arrest time: 10 µM STLC (FIG. 6D); for median mitotic arrest duration: 10 µM STLC (FIG. 5E); for Mitotic time (min), HeLa: in the presence of 10 µM STLC with the indicated drug or RNAi treatment, mean ± standard deviation, two replicates
Procedure: (§1) Mitotic arrest duration in the presence of 10 µM STLC for control HeLa compared to the ΔM1 and M1-stop mutant cell lines with the indicated drug or RNAi treatment (see FIGS. 3F, 9D). Indicated is the mean mitotic duration ± standard deviation across two experimental replicates. Statistics from Mann-Whitney Test (**** = p < 0.0001, NS = not significant).
(§2) HeLa, hTERT-RPE1, U2OS, and A549 cell lines were cultured in Dulbecco’s modified Eagle medium (DMEM) supplemented with 10% fetal bovine serum (FBS), 100 U/mL penicillin and streptomycin, and 2 mM L-glutamine at 37° C. with 5% CO2. Doxycycline-inducible cell lines were cultured in medium containing FBS certified tetracycline free. Cas9 expression in inducible CRISPR/Cas9 cell lines was induced with 1 µg/ml doxycycline hyclate (##) at 24 hr interval for 2 days. Other drugs used on human cells were Nocodazole (##, 330 nM), S-trityl-L-cysteine (STLC, ##, 10 µM), Taxol (##, 1 µM), GSK923295 (CENP-E inhibitor, ##, 100 nM), proTAME (APC/Ci, ##, 12 µM), AZ-3146 (Mps1i, ##, 4 µM) unless concentration indicated otherwise in figure legend. Cells were enriched in mitosis with treatment with 330 nM nocodazole for 16-17 hrs. Cell lines were tested monthly for mycoplasma contamination.
(§3) Cells were later moved to CO2-independent media (##) before imaging at 37° C. Phase contrast images were acquired on a Nikon eclipse microscope equipped with a charge-coupled device (CCD) camera (Clara, Andor) or a CMOS camera (##) using a Plan Fluor 20X/0.5 NA objective at either 5 min or 10 min intervals. Time-lapse movies were analyzed using Fiji (ImageJ, NIH), ilastik (##) and CellProfiler (##). Image brightness and contrast was adjusted in Fiji, pixel-based classification was performed on individual images using ilastik and the resulting probability map images were processed by CellProfiler to identify and track mitotic cells. Each mitotic cell was then confirmed manually and the mitotic duration was determined as the time from cell rounding at mitotic entry to cell flattening after mitotic exit.

[1] = tested on: ΔM1 mutant cell line (HeLa lacking the canonical M1 ATG start codon of CDC20); experiment: Time-lapse mitotic arrest duration in ΔM1 mutant cell line; type: cell-based, human; settings: for Mitotic time (min), ΔM1: in the presence of 10 µM STLC with the indicated drug or RNAi treatment, mean ± standard deviation, two replicates; for mitotic arrest / mitotic exit behaviour in the presence of STLC: ΔM1 cells, 10 µM STLC alone or with the named agent
Procedure: as §1, §2
(§4) Stable clonal cell lines lacking the canonical full-length Cdc20 protein were obtained by transfecting HeLa cells with pX330-based plasmids [Cong 2013] expressing spCas9 and either the sgM1 (for ΔM1 mutant) or the sgExon1 guide RNA (for M1-stop mutant). pX330-based plasmids were transfected using Xtremegene-9 (##) together with a mCherry-expressing plasmid and mCherry-positive cells were fluorescence activated cell-sorted into 96 well plates with one cell per well. Clones were screened for successful gene editing and the CDC20 allele sequence information was determined by next-generation sequencing (Genewiz Amplicon-EZ).
as §3

[2] = tested on: M1-stop mutant cell line (HeLa lacking full-length Cdc20); experiment: Time-lapse mitotic arrest duration in M1-stop mutant cell line; type: cell-based, human; settings: for mitotic arrest / mitotic exit behaviour in the presence of STLC: M1-stop cells, 10 µM STLC alone or with the named agent; for Mitotic time (min), M1-stop: in the presence of 10 µM STLC with the indicated drug or RNAi treatment, mean ± standard deviation, two replicates
Procedure: as §1, §2, §4, §3

U2OS cells = experiment: Time-lapse mitotic arrest duration in U2OS cells; type: cell-based, human; settings: for median arrest time: U2OS, 10 µM STLC (FIG. 6D)
Procedure: (§5) FIGS. 6A-6D show downstream in-frame Cdc20 translation initiation influences the mitotic slippage behavior of cancer cell lines. (FIG. 6A) Mitotic arrest duration of individual HeLa, U2OS, or A549 cells treated with 10 µM STLC alone or with a combination of STLC and siRNA treatment (either control siRNAs or Cdc20 siRNAs). Cells entering mitosis in the first 600 min (HeLa) or 700 min (U2OS/A549) of time lapse experiments were included in analyses. Open red circles indicate cells that exit mitosis. Closed black circles indicate cells that remained arrested in mitosis till the end of the time lapse. Blue circles indicate cells that die in mitosis. Bars correspond to median. Indicated are the median mitotic duration times across two experimental replicates. (FIG. 6B) Western blot of mitotically-enriched U2OS cells expressing endogenous Cdc20 protein or upon Cdc20 replacement with either wild-type CDC20 cDNA or a CDC20 M43L M88L mutant construct. Cells were enriched in mitosis with 10 µM STLC for 18 hrs. Cdc20 protein was detected using antibodies recognizing the human Cdc20 C-terminus (aa 450-499). β-actin was used as loading control. (FIG. 6C) Western blot similar to (B) for A549 cells except that ectopic constructs were induced with 50 ng/ml doxycycline. (FIG. 6D) Top, schematic illustrating the Cdc20 replacement strategy with siRNA-resistant 5′ UTR-CDC20 cDNA constructs from a doxycycline-inducible promoter combined with depletion of endogenous Cdc20 protein by siRNA treatment. Cells were treated with 10 ng/ml (HeLa/U2OS) or 50 ng/ml (A549) doxycycline. […]
(§6) Cells were later moved to CO2-independent media (##) before imaging at 37° C. […] Time-lapse movies were analyzed using Fiji (ImageJ, NIH), ilastik (##) and CellProfiler (##). […] Each mitotic cell was then confirmed manually and the mitotic duration was determined as the time from cell rounding at mitotic entry to cell flattening after mitotic exit.

A549 cells = experiment: Time-lapse mitotic arrest duration in A549 cells; type: cell-based, human; settings: for median arrest time: 10 µM STLC (FIG. 6D)
Procedure: as §5, §6

HEC-6 cells = experiment: Mitotic arrest duration in HEC-6 cells; type: cell-based; settings: 10 µM STLC (FIG. 14C)
Excerpt: (FIG. 14B) HEC-6 cells express reduced levels of full-length Cdc20 protein and thus higher relative levels of the alternative Cdc20 isoforms, compared to control HeLa cells.

[3] = Cdc20 replacement with Cdc20 M43L M88L
[4] = Cdc20 replacement with wild-type CDC20 construct

In the case of `N[C@@H](CSC(c1ccccc1)(c1ccccc1)c1ccccc1)C(=O)O` [STLC, S-trityl-L-cysteine], the median arrest time (HeLa cells; [3]) is reported as 2110 min, the median arrest time (HeLa cells; [4]) is reported as 1755 min and the “median mitotic arrest duration” value (HeLa cells; endogenous Cdc20 replaced with altATGmutx2 mutant construct) is reported as 1370 min. For the same molecule, the “median mitotic arrest duration” value (HeLa cells; endogenous Cdc20 replaced with wild-type siRNA-resistant CDC20 construct) was 1810 min, the “median mitotic arrest time” value (HeLa cells; STLC-treated HeLa, 10 µM STLC alone (FIG. 6A)) was 1645 min and the “time arrested in mitosis after mitotic entry” value (HeLa cells; control HeLa, 10 µM STLC, time-lapse (FIG. 3A)) was over 10 h. The “Mitotic time (min), HeLa” value (HeLa cells; listed as STLC/DMSO) was 780±203 (n=103) min, the “Mitotic time (min), HeLa” value (HeLa cells; listed as STLC/siCtrl) was 805±168 (n=122) min and the “Mitotic time (min), ΔM1” value ([1]; listed as STLC/DMSO) was 60±24 (n=97) min. The “Mitotic time (min), ΔM1” value ([1]; listed as STLC/siCtrl) was 65±37 (n=88) min, the “mitotic arrest / mitotic exit behaviour in the presence of STLC” value (from here on “mitotic arrest / mitotic exit behaviour”) [1] was “exit mitosis within a few hours” and the “mitotic arrest / mitotic exit behaviour” value [2] was “exit mitosis within a few hours”. The “Mitotic time (min), M1-stop” value ([2]; listed as STLC/DMSO) was 67±12 (n=85) min, the “Mitotic time (min), M1-stop” value ([2]; listed as STLC/siCtrl) was 70±18 (n=90) min and the “median mitotic arrest time” value (U2OS cells; STLC-treated U2OS, 10 µM STLC alone (FIG. 6A)) was 805 min. The median arrest time (U2OS cells; [3]) was 1100 min, the median arrest time (U2OS cells; [4]) was 690 min and the median arrest time (A549 cells; A549, Cdc20 replacement with Cdc20 M43L M88L) was 1140 min. The median arrest time (A549 cells; A549, Cdc20 replacement with wild-type CDC20 construct) was 920 min, the “median mitotic arrest time” value (A549 cells; STLC-treated A549, 10 µM STLC alone (FIG. 6A)) was 780 min and the “mitotic arrest duration compared to control HeLa cells” value (HEC-6 cells) was “reduced mitotic arrest duration compared to control HeLa cells”.

For `COC(=O)[C@H](CCCN=C(NC(=O)OCOC(=O)Cc1ccccc1)NC(=O)OCOC(=O)Cc1ccccc1)NS(=O)(=O)c1ccc(C)cc1` [proTAME], the “mitotic arrest / mitotic exit behaviour” value [1] was “suppressed the premature mitotic exit” and the “mitotic arrest / mitotic exit behaviour” value [2] was “suppressed the premature mitotic exit”.

For AZ3146, the “mitotic arrest / mitotic exit behaviour” value [1] was “not exacerbated further” and the “mitotic arrest / mitotic exit behaviour” value [2] was “further reduce the arrest”.
